{"source": "patent US20150342908A1", "about": "“SECOAPORPHINE ALKALOID DERIVATIVE FOR ACTIVATING AMP-DEPENDENT PROTEIN KINASE” (ZIH YUAN TANG Biotechnology Co., Ltd, priority 2014, published 2015)", "test_system": "AMPK", "experiment": "AMPK phosphorylation (Thr172) western blot in C2C12 myocytes", "type": "cell-based, mouse", "method": "C2C12 skeletal myoblast cell line was purchased from the Food Industry Research and Development Institute (Hsinchu, Taiwan). The C2C12 cell line was a cell line obtained from culturing the leg skeletal muscle of adult C3H mice in a cell incubator under […], 5% CO2, and 37° C. The cells were cultured in a DMEM medium (Gibco/Invitrogen, Carlsbad, Calif.) containing 4.5 mg/mL glucose, 10% fetal bovine serum (FBS; Gibco/Invitrogen, Carlsbad, Calif.), and an antibiotic solution (with final concentrations of penicillin=100 IU/mL and streptomycin=100 μg/mL). When the C2C12 myoblast cells have proliferated to cover seven-tenths of the area in the petri dish, the fetal bovine serum was replaced by 2% horse serum (Gibco/Invitrogen, Carlsbad, Calif.) so as to induce the C2C12 myoblast cells to become the multi-nuclei myocytes. The C2C12 myoblast cells differentiated into myocytes in 4 days, and the culture medium of the cells was replaced with no-serum DMEM 24 hours before the experiments so as to reduce metabolism of the cells. The C2C12 myocytes were treated respectively with 1 μM, 3 μM and 10 μM N-allylsecoboldine for 5 and 15 minutes. Then the C2C12 myocytes were rinsed with PBS buffer solution, and RIPA buffer solution containing protease inhibitors (20 mM Tris-HCl (pH 7.4), 100 mM NaCl, 1 mM EDTA, 1 mM EGTA, 0.1% SDS, 0.5% sodium deoxycholate, 1% NP-40, and 100× protease inhibitor cocktail) was added into the cells. The cells were collected and centrifuged on ice. Then, the concentrations of the supernatant samples were adjusted to be the same. The supernatant samples were put through vertical electrophoresis isolation with 8% SDS-PAGE, and the isolated proteins were transferred onto a PVDF blotting membrane. After blotting was completed, the PVDF blotting membrane was removed and blocked for 1 hour under room temperature with a blocking buffer of TBST (Tris-buffered saline with Tween-20) with 5% non-fat milk. Then, the PVDF blotting membrane was placed into a 5% BSA and TBST solution containing the primary monoclonal antibodies Phospho-AMPKα (Thr172) (Cell Signaling) (1:1000) and AMPKα (Thr172) (Cell Signaling) (1:1000), respectively, and the primary immunoblotting reaction was performed under 4° C. Then, the PVDF blotting membrane was rinsed 3 times with TBST, and a TBST solution containing the secondary antibody goat anti-rabbit IgG (Perkin Elmer) (1:10000) was added to perform the secondary reaction for one hour under room temperature. Finally, the membrane was rinsed 3 times with TBST before ECL (enhanced chemiluminescence) was added to present color.", "data": [{"smiles": "C=CCN(C)CCc1cc(O)c(OC)c2c1ccc1cc(O)c(OC)cc12", "note": "[N-allylsecoboldine]", "values": [{"measurement": "AMPK phosphorylation, times of that in the control cells", "setting": "3 μM, 5 minutes", "value": 2.34, "unit": "times"}, {"measurement": "AMPK phosphorylation, times of that in the control cells", "setting": "3 μM, 15 minutes", "value": 1.38, "unit": "times"}, {"measurement": "AMPK phosphorylation, times of that in the control cells", "setting": "10 μM, 5 minutes", "value": 2.51, "unit": "times"}, {"measurement": "AMPK phosphorylation, times of that in the control cells", "setting": "10 μM, 15 minutes", "value": 2.79, "unit": "times"}, {"measurement": "effect in AMPK activation (in words)", "setting": "C2C12 cells, overall conclusion", "value": "excellent effect in AMPK activation"}]}]}
